Drawing on PubChem BioAssay AID1259407 (Chemical Carcinogenesis Research Information System (CCRIS), 2018), this text covers mutagenic call for seven compounds.

This data set concerns CCRIS mutagenicity, Ames/micronucleus/aberration tests. Put plainly: CCRIS mutagenicity studies.
The mark [1] stands for this setting: Test System: AMES SALMONELLA TYPHIMURIUM, Strain/Indicator: TA100, Metabolic Activation: NONE, Method: STANDARD PLATE.
Setting [2] is: Test System: AMES SALMONELLA TYPHIMURIUM, Strain/Indicator: TA98, Metabolic Activation: NONE, Method: STANDARD PLATE.

Active and inactive are the calls of the source. No rule for the calls is given here.

For the compound `O=C1c2ccccc2C(=O)c2c(O)ccc(O)c21`, the mutagenic call by setting is: (End Point: IN VITRO CHROMOSOMAL ABERRATIONS, Test System: CHL CELLS, Metabolic Activation: NONE) “active; positive (structural changes); authors report equivocal results for ploidy chang”; (Test System: AMES SALMONELLA TYPHIMURIUM, Strain/Indicator: TA98, Metabolic Activation: NONE, Method: PREINCUBATION) “inactive; negative”; (Test System: AMES SALMONELLA TYPHIMURIUM, Strain/Indicator: TA98, Metabolic Activation: RAT LIVER S-9, PHENOBARBITAL AND BETA-NAPHTHOFLAVONE, Method: PREINCUBATION) “inactive; negative”; (Test System: AMES SALMONELLA TYPHIMURIUM, Strain/Indicator: TA98, Metabolic Activation: RAT, LIVER, S-9, AROCLOR 1254, Method: STANDARD PLATE) “inactive; negative”; (Test System: AMES SALMONELLA TYPHIMURIUM, Strain/Indicator: TA98, Metabolic Activation: RAT, LIVER, S-9, PCB, Method: PREINCUBATION) “inactive; negative”; (Test System: AMES SALMONELLA TYPHIMURIUM, Strain/Indicator: TA100, Metabolic Activation: NONE, Method: PREINCUBATION) “inactive; negative”. In addition, the mutagenic call is, setting by setting: under setting [1], “inactive; negative”; (Test System: AMES SALMONELLA TYPHIMURIUM, Strain/Indicator: TA100, Metabolic Activation: RAT LIVER S-9, PHENOBARBITAL AND BETA-NAPHTHOFLAVONE, Method: PREINCUBATION) “inactive; negative”; (Test System: AMES SALMONELLA TYPHIMURIUM, Strain/Indicator: TA100, Metabolic Activation: RAT, LIVER, S-9, AROCLOR 1254, Method: STANDARD PLATE) “inactive; negative”; (Test System: AMES SALMONELLA TYPHIMURIUM, Strain/Indicator: TA100, Metabolic Activation: RAT, LIVER, S-9, PCB, Method: PREINCUBATION) “inactive; negative”; (Test System: AMES SALMONELLA TYPHIMURIUM, Strain/Indicator: TA102, Metabolic Activation: NONE, Method: PREINCUBATION) “active; positive”; (Test System: AMES SALMONELLA TYPHIMURIUM, Strain/Indicator: TA102, Metabolic Activation: RAT, LIVER, S-9, Method: PREINCUBATION) “active; positive”. Further, the mutagenic call runs as follows: (Test System: AMES SALMONELLA TYPHIMURIUM, Strain/Indicator: TA1535, Metabolic Activation: NONE, Method: PREINCUBATION) “inactive; negative”; (Test System: AMES SALMONELLA TYPHIMURIUM, Strain/Indicator: TA1535, Metabolic Activation: NONE, Method: STANDARD PLATE) “inactive; negative”; (Test System: AMES SALMONELLA TYPHIMURIUM, Strain/Indicator: TA1535, Metabolic Activation: RAT LIVER S-9, PHENOBARBITAL AND BETA-NAPHTHOFLAVONE, Method: PREINCUBATION) “inactive; negative”; (Test System: AMES SALMONELLA TYPHIMURIUM, Strain/Indicator: TA1535, Metabolic Activation: RAT, LIVER, S-9, AROCLOR 1254, Method: STANDARD PLATE) “inactive; negative”; (Test System: AMES SALMONELLA TYPHIMURIUM, Strain/Indicator: TA1537, Metabolic Activation: NONE, Method: PREINCUBATION) “active; positive”; (Test System: AMES SALMONELLA TYPHIMURIUM, Strain/Indicator: TA1537, Metabolic Activation: NONE, Method: STANDARD PLATE) “active; positive”. The mutagenic call is “active; positive” (Test System: AMES SALMONELLA TYPHIMURIUM, Strain/Indicator: TA1537, Metabolic Activation: RAT LIVER S-9, PHENOBARBITAL AND BETA-NAPHTHOFLAVONE, Method: PREINCUBATION); “active; positive” (Test System: AMES SALMONELLA TYPHIMURIUM, Strain/Indicator: TA1537, Metabolic Activation: RAT, LIVER, S-9, AROCLOR 1254, Method: STANDARD PLATE); “inactive; negative” (Test System: AMES SALMONELLA TYPHIMURIUM, Strain/Indicator: TA1538, Metabolic Activation: NONE, Method: STANDARD PLATE); “inactive; negative” (Test System: AMES SALMONELLA TYPHIMURIUM, Strain/Indicator: TA1538, Metabolic Activation: RAT, LIVER, S-9, AROCLOR 1254, Method: STANDARD PLATE); “inactive; negative” (Test System: E.COLI, Strain/Indicator: WP2UVRA, Metabolic Activation: NONE, Method: PREINCUBATION); “inactive; negative” (Test System: E.COLI, Strain/Indicator: WP2UVRA, Metabolic Activation: RAT LIVER S-9, PHENOBARBITAL AND BETA-NAPHTHOFLAVONE, Method: PREINCUBATION).
Regarding `CN=NC(C)(C)OO`, the mutagenic call was “active; positive” (Test System: AMES SALMONELLA TYPHIMURIUM, Strain/Indicator: TA100, Metabolic Activation: NONE); “active; positive” (Test System: AMES SALMONELLA TYPHIMURIUM, Strain/Indicator: TA102, Metabolic Activation: NONE); “active; positive” (Test System: AMES SALMONELLA TYPHIMURIUM, Strain/Indicator: TA1535, Metabolic Activation: NONE); “active; positive” (Test System: E. COLI, Strain/Indicator: WP2 (HCR-), Metabolic Activation: NONE).
In the case of `C[C@@]12CC[C@@H]3[C@@](CC[C@H]4[C@@]3(C)CCC[C@@]4(C)C(=O)O)(CC1=O)C2`, the mutagenic call (Test System: AMES SALMONELLA TYPHIMURIUM, Strain/Indicator: TM677, Metabolic Activation: RAT, LIVER, S-9, AROCLOR 1254, Method: PREINCUBATION) was “inactive; negative”.
With `Cc1c2c(cc3c1ccc1ccccc13)C=C[C@@H](O)[C@@H]2O`, the mutagenic call (Test System: CHINESE HAMSTER V-79, Strain/Indicator: V-79/8-AZAGUANINE, Metabolic Activation: NONE, Method: STANDARD PLATE) is “active; positive”.
On to `CC1CNC(=O)N1c1ncc([N+](=O)[O-])s1` (stereo not drawn), for which the mutagenic call was “active; positive” under setting [2] and “active; positive” under setting [1].
Turning to `Cc1cc(C)c(C)cc1C`, the mutagenic call by setting is: (Test System: AMES SALMONELLA TYPHIMURIUM, Strain/Indicator: TA97A, Metabolic Activation: NONE, Method: STANDARD PLATE) “inactive; negative”; (Test System: AMES SALMONELLA TYPHIMURIUM, Strain/Indicator: TA97A, Metabolic Activation: RAT LIVER S-9, AROCLOR 1254, Method: STANDARD PLATE) “inactive; negative”; under setting [2], “inactive; negative”; (Test System: AMES SALMONELLA TYPHIMURIUM, Strain/Indicator: TA98, Metabolic Activation: RAT LIVER S-9, AROCLOR 1254, Method: STANDARD PLATE) “inactive; negative”; under setting [1], “inactive; negative”; (Test System: AMES SALMONELLA TYPHIMURIUM, Strain/Indicator: TA100, Metabolic Activation: RAT LIVER S-9, AROCLOR 1254, Method: STANDARD PLATE) “inactive; negative”. Moreover, the mutagenic call reads like this: (Test System: AMES SALMONELLA TYPHIMURIUM, Strain/Indicator: TA102, Metabolic Activation: NONE, Method: STANDARD PLATE) “inactive; negative”; (Test System: AMES SALMONELLA TYPHIMURIUM, Strain/Indicator: TA102, Metabolic Activation: RAT LIVER S-9, AROCLOR 1254, Method: STANDARD PLATE) “inactive; negative”.
As for `O=[N+]([O-])c1ccc(/C=C/c2ccc([N+](=O)[O-])cc2)cc1`, the mutagenic call is “active; positive” (Test System: AMES SALMONELLA TYPHIMURIUM, Strain/Indicator: TA98 (NR), Metabolic Activation: NONE, Method: STANDARD PLATE); “inactive; negative” (Test System: AMES SALMONELLA TYPHIMURIUM, Strain/Indicator: TA98 (NR), Metabolic Activation: S-9, Method: STANDARD PLATE); “active; positive” under setting [2]; “active; positive” (Test System: AMES SALMONELLA TYPHIMURIUM, Strain/Indicator: TA98, Metabolic Activation: S-9, Method: STANDARD PLATE); “inactive; negative” (Test System: AMES SALMONELLA TYPHIMURIUM, Strain/Indicator: TA100 (NR), Metabolic Activation: NONE, Method: STANDARD PLATE); “inactive; negative” (Test System: AMES SALMONELLA TYPHIMURIUM, Strain/Indicator: TA100 (NR), Metabolic Activation: S-9, Method: STANDARD PLATE). Further, the mutagenic call by setting is: under setting [1], “active; positive”; (Test System: AMES SALMONELLA TYPHIMURIUM, Strain/Indicator: TA100, Metabolic Activation: S-9, Method: STANDARD PLATE) “active; positive”.
